Laboratory results taken from patent US10590496B2, “Composition for preventing and treating degenerative brain disease using novel lactic acid bacteria” (WEDEA INC., priority 2016, dated 2020).

Tests used:
CD3 T cells = experiment: Flow cytometry, frequency of CD3 T cells; type: in vivo, Balb/c based male mice; settings: 100 mg/kg orally for 14 days
[1] = system: peritoneal cell population; experiment: Proliferation of peritoneal cell population (number of lymphocytes); type: in vivo, Balb/c based mice; settings: abdominal cavity, orally for 14 days
Method: Balb/c based mice were divided into a vehicle control group, a group in which 5-aminolevulinic acid (100 mg/kg) was orally administered for 14 days (2 weeks), a group in which Lactobacillus reuteri ELF (100 mg/kg) was orally administered for 14 days (2 weeks), a group in which a mixture sample (50 mg/kg) of Lactobacillus reuteri ELF and 5-aminolevulinic acid was orally administered for 14 days (2 weeks), and a group in which the mixture sample (100 mg/kg) of Lactobacillus reuteri ELF and 5-aminolevulinic acid was orally administered for 14 days (2 weeks). Two days before termination of administration, 0.5 ml of 2% normal saline suspension of starch was injected into the abdominal cavity of the mice to thereby be immunized. The mice were sacrificed, and the abdomen was disinfected with alcohol. […] After recovered cells were cooled, washed with the same HBSS solution two times, the number of peritoneal cells existing therein was directly measured using a hemocytometer under a microscope. […] Thereafter, the resultants were washed with PBS three times or more, and frequencies (%) of activated CD11b^+ CD14^+, CD3^+ CD4^+, and CD3^+ CD8^+ cells were analyzed using the Cell Quest program of a flow cytometry, and a total cell count was applied thereto, thereby calculating the absolute number of peritoneal cell population.

CD4^+ CD25^+ cells = experiment: Flow cytometry, frequency of CD4^+ CD25^+ cells; type: in vivo, Balb/c based male mice; settings: 100 mg/kg orally for 14 days
Method: (§1) Balb/c based male mice (8 weeks old) were divided into a vehicle control group, a group in which 5-aminolevulinic acid (hereinafter, referred as ‘ALA’, 100 mg/kg) was orally administered for 14 days (2 weeks), a group in which Lactobacillus reuteri ELF (hereinafter, referred to as ‘LAB’, 100 mg/kg) was orally administered for 14 days (2 weeks), a group in which a mixture sample (50 mg/kg) of Lactobacillus reuteri ELF and 5-aminolevulinic acid (hereinafter, referred to as ‘ALA+LAB’) was orally administered for 14 days (2 weeks), and a group in which the mixture sample (100 mg/kg) of Lactobacillus reuteri ELF and 5-aminolevulinic acid was orally administered for 14 days (2 weeks).
(§2) After 2 weeks of administration, in order to obtain PBMC in the mice, the blood was extracted using a syringe (3 ml) treated with heparin by a cardiac puncture method. The extracted blood was mixed and treated with 10 ml of ACK solution (a solution obtained by mixing 8.3 g of NH4Cl and 1 g of KHCO3 with demineralized water to which 0.1 Mm EDTA was added) prepared in advance at room temperature for 5 minutes, thereby removing red blood cells. […] Thereafter, the resultants were washed with PBS three times or more, and frequencies (%) of activated CD4^+ CD25^+, CD44^+ CD69^+, CD49b^+ NK1.1^+, and CD25^+ CTLA-4^+ cells were analyzed using a cell quest program of flow cytometry.

activated Th lymphocytes = experiment: Flow cytometry of activated Th lymphocytes in PBMC; type: in vivo, Balb/c based male mice; settings: 100 mg/kg orally for 14 days
Method: as §1, §2

IL-2 = IL-2 production amount in cultured spleen cells (ELISA); type: in vivo, Balb/c based male mice; settings: single agents 100 mg/kg, mixture sample 50 and 100 mg/kg, orally for 14 days
Method: as §1
(§3) After 2 weeks of administration, the spleen was harvested from the mice, and spleen cells were isolated with a 100 mesh filter. Before one day of measurement, anti-CD3 mAb (1 μg/ml) was coated on a 96-well plate and kept overnight in a refrigerator at 4° C., and the 96-well plate was washed with D-PBS two times. […] Levels of IFN-γ, IL-2, IL-4, and IL-10 in the culture supernatant were measured by enzyme-linked immuno-sorbent assay (ELISA). […] Thereafter, absorbance was measured at 450 nm in an ELISA reader.

IFN-γ = IFN-γ production amount in cultured spleen cells (ELISA); type: in vivo, Balb/c based male mice; settings: single agents 100 mg/kg, mixture sample 50 and 100 mg/kg, orally for 14 days
Method: as §1, §3

[2] = system: nitrogen oxide (NO) in macrophage; experiment: Nitrogen oxide (NO) formation in macrophage; type: in vivo, Balb/c based mice; settings: 100 mg/kg orally for 14 days; peritoneal macrophages cultured 72 hours
Method: Balb/c based mice were divided into a vehicle control group, a group in which 5-aminolevulinic acid (100 mg/kg) was orally administered for 14 days (2 weeks), a group in which Lactobacillus reuteri ELF (100 mg/kg) was orally administered for 14 days (2 weeks), a group in which a mixture sample (50 mg/kg) of Lactobacillus reuteri ELF and 5-aminolevulinic acid was orally administered for 14 days (2 weeks), and a group in which the mixture sample (100 mg/kg) of Lactobacillus reuteri ELF and 5-aminolevulinic acid was orally administered for 14 days (2 weeks). Three days before termination of administration, after 1.5 ml of 10% proteose peptone (Difco) aqueous solution was administered into the abdominal cavity of the mice, the mice were sacrificed, and the abdomen was disinfected with alcohol. The skin of the abdomen was cut using scissors, and the peritoneum was exposed. Then, 4.5 ml of cooled Hanks' balanced salt solution (HBSS) was injected into the abdominal cavity using a syringe and abdominal massage was performed thereon for 30 seconds, followed by recovering a peritoneal washing fluid using a syringe. […] In addition, after 200 μl of […] reagent II in which 0.06 g of N-1-naphthylene amidehydrochloride was dissolved in 50 ml of distilled water was rapidly added thereto, and stirred, absorbance was measured at 540 nm.

Gr-1/CD11b cells = experiment: Flow cytometry, frequency of Gr-1/CD11b cells; type: in vivo, Balb/c based male mice; settings: 100 mg/kg orally for 14 days
IL-4 = IL-4 production amount in cultured spleen cells (ELISA); type: in vivo, Balb/c based male mice; settings: single agents 100 mg/kg, mixture sample 50 and 100 mg/kg, orally for 14 days
Method: as §1, §3

NKG2D = experiment: Flow cytometry, frequency of NKG2D, bioactive marker of NK cells; type: in vivo, Balb/c based male mice; settings: 100 mg/kg orally for 14 days
[3] = system: IFN-γ, IL-2, IL-4, and IL-10; experiment: ELISA absorbance of culture supernatant of spleen cells (cytokine not specified); type: in vivo, Balb/c based male mice; settings: 100 mg/kg orally for 14 days; spleen cells on anti-CD3 mAb, 48 hours
Method: as §1, §3

[4] = system: cytochrome c oxidase (COX); experiment: COX activity in liver mitochondria; type: in vivo, Balb/c based mice; settings: 100 mg/kg orally for 14 days
Method: Balb/c based mice were divided into a vehicle control group, a group in which 5-aminolevulinic acid (100 mg/kg) was orally administered for 14 days (2 weeks), a group in which Lactobacillus reuteri ELF (100 mg/kg) was orally administered for 14 days (2 weeks), and a group in which the mixture sample (100 mg/kg) of Lactobacillus reuteri ELF and 5-aminolevulinic acid was orally administered for 14 days (2 weeks). In order to measure cytochrome c oxidase (COX) activity in the liver mitochondria of the mouse after administration, proteins were extracted from the liver cells of the mouse and measured using a COX activity assay kit (TA100, Toyo B Net).

In the case of `NCC(=O)CCC(=O)O` [5-aminolevulinic acid], the “frequency of CD3 T cells as compared to the control group” value (CD3 T cells) is reported as “increased”, the “number of lymphocytes as compared to the control group” value [1] is reported as “increased” and the “frequency of CD4^+ CD25^+ cells as compared to the control group” value (CD4^+ CD25^+ cells) is reported as “significantly increased”. The “frequency of activated Th lymphocytes in PBMC, increase as compared to the negative control group” value (activated Th lymphocytes) was ≥ 46.2%, the “IL-2 production amount as compared to control group (NC)” value (IL-2) was “slightly increased” and the “IFN-γ production amount as compared to control group (NC)” value (IFN-γ) was “slightly increased”. The “nitrogen oxide (NO) production amount as compared to the control group (NC)” value [2] was “statistically significantly increased”, the “frequency of Gr-1/CD11b cells as compared to the control group” value (Gr-1/CD11b cells) was “significantly increased” and the “IL-4 production amount as compared to control group (NC)” value (IL-4) was “slightly increased”. For the same compound, the “frequency of NKG2D as compared to the control group” value (NKG2D) was “significantly increased”, the “ELISA absorbance at 450 nm relative to control group (NC)” value [3] was “increased two times or more” and the “COX activity in liver mitochondria relative to control group” value [4] was “increased by two times or more”.
